System: K86415-001-R-J1-PDC complex spheroids, viability
Experiment: Anticancer human tumor K86415-001-R-J1-PDC patient-derived lung adenocarcinoma cell line growth inhibition [RAS]
Conditions: for IC50: curve of first compound; for viability, T/C: stronger effect = lower value
Outline: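 Tumour cells grown as complex spheroids with HUVEC endothelial cells and mesenchymal stem cells, treated with RAS pathway inhibitor combinations. Each agent spans half-log steps from near clinical Cmax, or 10 microM where Cmax is unknown.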
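Note: spheroids exposed to agents for seven days before readout.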

## CC1(O)CCCC1n1c(=O)c(C(F)F)cc2cnc(NC3CCN(S(C)(=O)=O)CC3)nc21 (centres undefined) + C#Cc1c(F)ccc2cc(O)cc(-c3ncc4c(N5CC6CCC(C5)N6)nc(OCC56CCCN5CC(F)C6)nc4c3F)c12
Second compound 0.0316 µM
  IC50: 4560 nM
Second compound 0.1 µM
  IC50: 4580 nM
Second compound 0.316 µM
  IC50: 4300 nM
Second compound 1 µM
  IC50: 4020 nM
Second compound 3.16 µM
  IC50: < 31.6 nM
Second compound 10 µM
  IC50: < 31.6 nM
Second compound 0.0316 µM, first compound 0.0316 µM
  viability, T/C: 86.2%
Second compound 0.0316 µM, first compound 0.1 µM
  viability, T/C: 71.4%
Second compound 0.0316 µM, first compound 0.316 µM
  viability, T/C: 59%
Second compound 0.0316 µM, first compound 1 µM
  viability, T/C: 79.4%
Second compound 0.0316 µM, first compound 3.16 µM
  viability, T/C: 70%
Second compound 0.0316 µM, first compound 10 µM
  viability, T/C: 7.15%
Second compound 0.1 µM, first compound 0.0316 µM
  viability, T/C: 78.2%
Second compound 0.1 µM, first compound 0.1 µM
  viability, T/C: 68.4%
Second compound 0.1 µM, first compound 0.316 µM
  viability, T/C: 57.9%
Second compound 0.1 µM, first compound 1 µM
  viability, T/C: 64.6%
Second compound 0.1 µM, first compound 3.16 µM
  viability, T/C: 80.6%
Second compound 0.1 µM, first compound 10 µM
  viability, T/C: 8.13%
Second compound 0.316 µM, first compound 0.0316 µM
  viability, T/C: 74.2%
Second compound 0.316 µM, first compound 0.1 µM
  viability, T/C: 63.3%
Second compound 0.316 µM, first compound 0.316 µM
  viability, T/C: 55%
Second compound 0.316 µM, first compound 1 µM
  viability, T/C: 67.9%
Second compound 0.316 µM, first compound 3.16 µM
  viability, T/C: 67.1%
Second compound 0.316 µM, first compound 10 µM
  viability, T/C: 8.09%
Second compound 1 µM, first compound 0.0316 µM
  viability, T/C: 65.3%
Second compound 1 µM, first compound 0.1 µM
  viability, T/C: 62.4%
Second compound 1 µM, first compound 0.316 µM
  viability, T/C: 53.6%
Second compound 1 µM, first compound 1 µM
  viability, T/C: 54.5%
Second compound 1 µM, first compound 3.16 µM
  viability, T/C: 70.7%
Second compound 1 µM, first compound 10 µM
  viability, T/C: 6.85%
Second compound 3.16 µM, first compound 0.0316 µM
  viability, T/C: 28.2%
Second compound 3.16 µM, first compound 0.1 µM
  viability, T/C: 28.9%
Second compound 3.16 µM, first compound 0.316 µM
  viability, T/C: 29%
Second compound 3.16 µM, first compound 1 µM
  viability, T/C: 43.6%
Second compound 3.16 µM, first compound 3.16 µM
  viability, T/C: 59.4%
Second compound 3.16 µM, first compound 10 µM
  viability, T/C: 5.28%
Second compound 10 µM, first compound 0.0316 µM
  viability, T/C: 15.6%
Second compound 10 µM, first compound 0.1 µM
  viability, T/C: 16.1%
Second compound 10 µM, first compound 0.316 µM
  viability, T/C: 21.9%
Second compound 10 µM, first compound 1 µM
  viability, T/C: 25.9%
Second compound 10 µM, first compound 3.16 µM
  viability, T/C: 30.2%
Second compound 10 µM, first compound 10 µM
  viability, T/C: 2.97%

## C=CC(=O)Nc1cc(Nc2nccc(-c3cn(C)c4ccccc34)n2)c(OC)cc1N(C)CCN(C)C + CCn1c(-c2cc(N3CCN(C)CC3)cnc2C(C)OC)c2c3cc(ccc31)-c1csc(n1)CC(NC(=O)C1CC1C)C(=O)N1CCCC(N1)C(=O)OCC(C)(C)C2
Second compound 0.000949 µM
  IC50: < 3.16 nM
Second compound 0.003 µM
  IC50: < 3.16 nM
Second compound 0.00949 µM
  IC50: < 3.16 nM
Second compound 0.03 µM
  IC50: < 3.16 nM
Second compound 0.0949 µM
  IC50: < 3.16 nM
Second compound 0.3 µM
  IC50: < 3.16 nM
Second compound 0.000949 µM, first compound 0.00316 µM
  viability, T/C: 42.7%
Second compound 0.000949 µM, first compound 0.01 µM
  viability, T/C: 48.3%
Second compound 0.000949 µM, first compound 0.0316 µM
  viability, T/C: 35.9%
Second compound 0.000949 µM, first compound 0.1 µM
  viability, T/C: 38.2%
Second compound 0.000949 µM, first compound 0.316 µM
  viability, T/C: 21.3%
Second compound 0.000949 µM, first compound 1 µM
  viability, T/C: 12.4%
Second compound 0.003 µM, first compound 0.00316 µM
  viability, T/C: 24.9%
Second compound 0.003 µM, first compound 0.01 µM
  viability, T/C: 21.3%
Second compound 0.003 µM, first compound 0.0316 µM
  viability, T/C: 14.2%
Second compound 0.003 µM, first compound 0.1 µM
  viability, T/C: 17%
Second compound 0.003 µM, first compound 0.316 µM
  viability, T/C: 8.65%
Second compound 0.003 µM, first compound 1 µM
  viability, T/C: 7.93%
Second compound 0.00949 µM, first compound 0.00316 µM
  viability, T/C: 17.6%
Second compound 0.00949 µM, first compound 0.01 µM
  viability, T/C: 9.97%
Second compound 0.00949 µM, first compound 0.0316 µM
  viability, T/C: 7.46%
Second compound 0.00949 µM, first compound 0.1 µM
  viability, T/C: 8.25%
Second compound 0.00949 µM, first compound 0.316 µM
  viability, T/C: 4.55%
Second compound 0.00949 µM, first compound 1 µM
  viability, T/C: 4.52%
Second compound 0.03 µM, first compound 0.00316 µM
  viability, T/C: 7.56%
Second compound 0.03 µM, first compound 0.01 µM
  viability, T/C: 5.27%
Second compound 0.03 µM, first compound 0.0316 µM
  viability, T/C: 5.75%
Second compound 0.03 µM, first compound 0.1 µM
  viability, T/C: 3.23%
Second compound 0.03 µM, first compound 0.316 µM
  viability, T/C: 3.09%
Second compound 0.03 µM, first compound 1 µM
  viability, T/C: 3.11%
Second compound 0.0949 µM, first compound 0.00316 µM
  viability, T/C: 3.51%
Second compound 0.0949 µM, first compound 0.01 µM
  viability, T/C: 3.84%
Second compound 0.0949 µM, first compound 0.0316 µM
  viability, T/C: 2.21%
Second compound 0.0949 µM, first compound 0.1 µM
  viability, T/C: 2.65%
Second compound 0.0949 µM, first compound 0.316 µM
  viability, T/C: 3.94%
Second compound 0.0949 µM, first compound 1 µM
  viability, T/C: 3.24%
Second compound 0.3 µM, first compound 0.00316 µM
  viability, T/C: 2.73%
Second compound 0.3 µM, first compound 0.01 µM
  viability, T/C: 2.35%
Second compound 0.3 µM, first compound 0.0316 µM
  viability, T/C: 2.65%
Second compound 0.3 µM, first compound 0.1 µM
  viability, T/C: 2.51%
Second compound 0.3 µM, first compound 0.316 µM
  viability, T/C: 2.55%
Second compound 0.3 µM, first compound 1 µM
  viability, T/C: 3.25%
